Assay results as given in PubChem BioAssay AID256 (DTP/NCI, 2004).
“And” between values parts separate entries of the source, which are not always exact repeats. Equal entries are not always repeated. Toxic doses and inconclusive results are not listed.

System: CD2F1 mice, L1210 leukemia ip, survival T/C
Assay: NCI In Vivo Anticancer Drug Screen. Data for tumor model L1210 Leukemia (intraperitoneal) in CD2F1 (CDF1) mice
Conditions: endpoint: mean survival time, higher = longer survival
Procedure, shortened: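 Compound-dosed mice with transplantable tumor versus matched vehicle controls; endpoint ratio T/C reported.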

[1] = dose: 100.0 mg/kg/injection, schedule: Q01DX009 (ip), vehicle: saline with Tween-80
[2] = dose: 200.0 mg/kg/injection, schedule: Q01DX009 (ip), vehicle: saline with Tween-80
[3] = dose: 400.0 mg/kg/injection, schedule: Q01DX009 (ip), vehicle: saline with Tween-80
[4] = dose: 25.0 mg/kg/injection, schedule: Q01DX009 (ip), vehicle: saline with Tween-80
[5] = dose: 50.0 mg/kg/injection, schedule: Q01DX009 (ip), vehicle: saline with Tween-80
[6] = dose: 100.0 mg/kg/injection, schedule: Q04DX003 (ip), vehicle: saline with Tween-80
[7] = dose: 200.0 mg/kg/injection, schedule: Q04DX003 (ip), vehicle: saline with Tween-80
[8] = dose: 400.0 mg/kg/injection, schedule: Q04DX003 (ip), vehicle: saline with Tween-80

With C=CCN(CC=C)P(=O)(N1CC1C)N1CC1C (stereo not drawn) the T/C (dose: 1.0 mg/kg/injection, schedule: Q01DX009 (ip), vehicle: saline) was 122 % of control and the T/C (dose: 2.5 mg/kg/injection, schedule: Q01DX001 (ip), vehicle: saline) was 115 % of control.

In the case of c1ccc(-c2nc(/N=N/c3nc(-c4ccccc4)c(-c4ccccc4)[nH]3)[nH]c2-c2ccccc2)cc1, the T/C (dose: 100.0 mg/kg/injection, schedule: Q04DX002 (ip), vehicle: Klucel (hydroxypropylcellulose) (HPC)) is reported as 96 % of control, the T/C (dose: 200.0 mg/kg/injection, schedule: Q04DX002 (ip), vehicle: Klucel (hydroxypropylcellulose) (HPC)) is reported as 96 % of control and the T/C (dose: 400.0 mg/kg/injection, schedule: Q04DX002 (ip), vehicle: Klucel (hydroxypropylcellulose) (HPC)) is reported as 100 % of control.

Brc1ccccc1C=C1c2ccccc2-c2ccccc21 was tested, and the T/C [1] was 100 % of control, the T/C [2] was 102 % of control and the T/C [3] was 106 % of control.

CN(C)c1ccc(N=Nc2cccc(Cl)c2Cl)cc1 was tested, and the T/C [4] was 102 % of control, the T/C [5] was 97 % of control and the T/C [1] was 105 % of control. For the same compound, the T/C [6] was 95 % of control, the T/C [7] was 98 % of control and the T/C [8] was 104 % of control.

For O=C(O)c1c(F)c(F)c(F)c(Br)c1F, the T/C [6] was 93 % of control and the T/C [7] was 93 % of control.

With CCC(C(=O)OCCNC1CCCCC1)c1ccccc1 (stereo not drawn) the T/C (dose: 75.0 mg/kg/injection, schedule: Q01DX001 (ip), vehicle: saline) was 110 % of control.

CC(C)(C)C1CCC(OC(=O)c2ccccc2C(=O)O)CC1 (stereo not drawn) was tested, and the T/C [1] was 100 % of control, the T/C [6] was 100 % of control and the T/C [2] was 97 % of control. For the same compound, the T/C [7] was 98 % of control, the T/C [3] was 89 % of control and the T/C [8] was 96 % of control.

CCOC(=O)/C=C(\C)Nc1cccc(NC(C)=O)c1 was tested, and the T/C (dose: 12.5 mg/kg/injection, schedule: Q01DX009 (ip), vehicle: other) was 97 % of control, the T/C (dose: 25.0 mg/kg/injection, schedule: Q01DX009 (ip), vehicle: other) was 91 % of control and the T/C (dose: 50.0 mg/kg/injection, schedule: Q01DX009 (ip), vehicle: other) was 91 % of control. For the same compound, the T/C (dose: 100.0 mg/kg/injection, schedule: Q01DX009 (ip), vehicle: other) was 100 % of control and the T/C (dose: 200.0 mg/kg/injection, schedule: Q01DX009 (ip), vehicle: other) was 91 % of control.

With NC(=O)C(N)CCO (stereo not drawn) the T/C (dose: 75.0 mg/kg/injection, schedule: Q01DX009 (ip), vehicle: saline) was 92 % of control, the T/C (dose: 75.0 mg/kg/injection, schedule: Q04DX003 (ip), vehicle: saline) was 97 % of control and the T/C (dose: 150.0 mg/kg/injection, schedule: Q01DX009 (ip), vehicle: saline) was 102 % of control. For the same compound, the T/C (dose: 150.0 mg/kg/injection, schedule: Q04DX003 (ip), vehicle: saline) was 95 % of control, the T/C (dose: 300.0 mg/kg/injection, schedule: Q01DX009 (ip), vehicle: saline) was 97 % of control and the T/C (dose: 300.0 mg/kg/injection, schedule: Q04DX003 (ip), vehicle: saline) was 95 % of control.

For O=P(Oc1ccccc1)(Oc1ccccc1)N(CCCl)CCCl, the T/C (dose: 12.5 mg/kg/injection, schedule: Q01DX009 (ip), vehicle: water) was 101 % of control, the T/C (dose: 25.0 mg/kg/injection, schedule: Q01DX009 (ip), vehicle: water) was 100 % of control and 108 % of control and the T/C (dose: 31.25 mg/kg/injection, schedule: Q01DX001 (ip), vehicle: distilled water + Tween-80) was 104 % of control. For the same compound, the T/C (dose: 50.0 mg/kg/injection, schedule: Q01DX009 (ip), vehicle: water) was 104 % of control, the T/C (dose: 62.5 mg/kg/injection, schedule: Q01DX001 (ip), vehicle: distilled water + Tween-80) was 107 % of control and the T/C (dose: 100.0 mg/kg/injection, schedule: Q01DX009 (ip), vehicle: water) was 161 % of control. For the same compound, the T/C (dose: 125.0 mg/kg/injection, schedule: Q01DX001 (ip), vehicle: distilled water + Tween-80) was 102 % of control and the T/C (dose: 250.0 mg/kg/injection, schedule: Q01DX001 (ip), vehicle: distilled water + Tween-80) was 119 % of control.

For Cc1ccc2c(ccc(/C=C/c3ccc(O)c4ncccc34)[n+]2C)c1, the T/C (dose: 12.5 mg/kg/injection, schedule: Q01DX009 (ip), vehicle: saline with Tween-80) was 117 % of control, the T/C [4] was 122 % of control and the T/C [5] was 105 % of control. The T/C (dose: 66.0 mg/kg/injection, schedule: Q04DX003 (ip), vehicle: saline with Tween-80) was 119 % of control, the T/C [6] was 119 % of control and the T/C (dose: 150.0 mg/kg/injection, schedule: Q04DX003 (ip), vehicle: saline with Tween-80) was 119 % of control.
